Measured values as given in patent US7175872B2, “Pyridinium-Betain compounds for use as taste modulators” (Nestec S.A., priority 2002, dated 2007).
Entries after “also recorded” stand apart in the source; their conditions may differ. Where a name gives a salt, the structure may show the parent alone.

Tests used:
Assay type in all cases: in vivo
sweet taste of sucrose = assay: Sweet taste detection threshold of sucrose/Pyridinium-Betaine mixtures (triangle test, sensory panel); set-up: key to Threshold decrease: fold decrease of sweet threshold vs pure sucrose; conditions: equimolar mixture with sucrose; for Threshold decrease: vs sucrose in water 12.5 mmol/L
Protocol: (§1) • Sensory panel training: […] Sensory analyses were performed in a sensory panel room at 22-25° C. on three different sessions. • Taste thresholds: The taste thresholds of the tastants or mixtures containing basic tastants plus Pyridinium-Betains were determined in a triangle test using Evian® mineral water as the solvent at a defined pH ([…] and H.-D. Belitz, Z. Lebensm. Unters. Forsch. 1975, 159, 65-72). The samples (3 mL) were presented in order of increasing concentrations (serial 1:1 dilutions). The threshold values evaluated in two different sessions were averaged. […] The taste intensities of aqueous (Evian®) solutions containing a basic tastant, such as glucose and MSG, for example, in constant concentrations and the compounds of the general formula (A), for example […], in various concentrations were compared with those of a solution containing the basic tastant only. To achieve this, triangle tests were performed with two glass vials containing the basic tastant in constant concentrations, and one glass vial containing a stepwise 1:1-diluted mixture of basic […]. […] The relative taste strength (taste enhancing factor) of a mixture containing the basic […] was related to the basic tastants glucose, MSG, or other tastants, respectively, as standard substances, and was determined as the ratio of the concentrations c of iso-intensely tasting solutions of the basic tastant, such as glucose (glc), and the mixture containing tastant plus Pyridinium-Betain, […])=[…] This taste enhancing effect is illustrated in examples. The sweet taste thresholds of equimolar mixtures of sweet tasting compounds and various Pyridinium-Betaines were determined by a triangle test using EVIAN® mineral water as the solvent. The sensorial evaluations were performed at different pH values. The equimolar mixture of […] and sucrose at pH 7.0 was evaluated with a 4-fold lower sweet threshold concentration than pure sucrose (Table 1).

umami taste of MSG = assay: Iso-intensity: relative umami taste of MSG/Alapyridaine mixtures; conditions: 1.5 mmol/kg MSG and 6.0 mmol/kg Alapyridaine vs 1.5 mmol/kg MSG
Protocol: • Sensory panel training: […] Sensory analyses were performed in a sensory panel room at 22-25° C. on three different sessions. • Taste thresholds: The taste thresholds of the tastants or mixtures containing basic tastants plus Pyridinium-Betains were determined in a triangle test using Evian® mineral water as the solvent at a defined pH ([…] and H.-D. Belitz, Z. Lebensm. Unters. Forsch. 1975, 159, 65-72). The samples (3 mL) were presented in order of increasing concentrations (serial 1:1 dilutions). The threshold values evaluated in two different sessions were averaged. […] The taste intensities of aqueous (Evian®) solutions containing a basic tastant, such as glucose and MSG, for example, in constant concentrations and the compounds of the general formula (A), for example […], in various concentrations were compared with those of a solution containing the basic tastant only. […] The relative taste strength (taste enhancing factor) of a mixture containing the basic […] was related to the basic tastants glucose, MSG, or other tastants, respectively, as standard substances, and was determined as the ratio of the concentrations c of iso-intensely tasting solutions of the basic tastant, such as glucose (glc), and the mixture containing tastant plus Pyridinium-Betain, […])=[…] […]

sweet taste of glucose = assay: Sweet taste detection threshold of glucose/Pyridinium-Betaine mixtures (triangle test, sensory panel); conditions: equimolar mixture with glucose; for Threshold decrease: vs glucose in water 50.0 mmol/L
Protocol: as §1, with “1). […] is able to reduce the sweet threshold of glucose 16-fold at pH 7.0 and pH 9.0, whereas at pH 5.0 a gain the sweet taste perception […] (Table 2). […] Using the dipeptide derivative (S)-[…] as a taste-enhancer leads to a 16-fold threshold reduction compared to glucose.” for “1).”

Q: With `CC(C(=O)[O-])[n+]1cc(O)ccc1CO` (stereo not shown) [Alapyridaine, N-(1-carboxyethyl)-3-hydroxy-6-hydroxymethyl-pyridinium inner salt] as the compound, how does the Sweet detection threshold (sweet taste of sucrose; pH 5.0) read?
A: 3.0 mmol/kg water

Q: What about the Taste quality (sweet taste of sucrose; pH 5.0) of the same compound?
A: sour taste; also recorded: sweet/

Q: And the Threshold decrease (sweet taste of sucrose; pH 5.0)?
A: 4.0

Q: And the Sweet detection threshold (sweet taste of sucrose; pH 7.0)?
A: 3.0 mmol/kg water

Q: What about the Taste quality (sweet taste of sucrose; pH 7.0) of the same compound?
A: sweet

Q: What about the Threshold decrease (sweet taste of sucrose; pH 7.0) of the same compound?
A: 4

Q: What about the Sweet detection threshold (sweet taste of sucrose; pH 9.0) of the same compound?
A: 1.5 mmol/kg water

Q: What about the Taste quality (sweet taste of sucrose; pH 9.0) of the same compound?
A: sweet

Q: What about the Threshold decrease (sweet taste of sucrose; pH 9.0) of the same compound?
A: 8

Q: And the “maximum umami-taste intensity (iso-intensity)” value (umami taste of MSG)?
A: 4 -fold

Q: And the Sweet detection threshold (sweet taste of glucose; pH 5.0)?
A: 6.0 mmol/kg water

Q: What about the Taste quality (sweet taste of glucose; pH 5.0) of the same compound?
A: sweet/

Q: And the Threshold decrease (sweet taste of glucose; pH 5.0)?
A: 8.0

Q: And the Sweet detection threshold (sweet taste of glucose; pH 7.0)?
A: 3.0 mmol/kg water

Q: What about the Taste quality (sweet taste of glucose; pH 7.0) of the same compound?
A: sweet

Q: What about the Threshold decrease (sweet taste of glucose; pH 7.0) of the same compound?
A: 16

Q: What about the Sweet detection threshold (sweet taste of glucose; pH 9.0) of the same compound?
A: 3.0 mmol/kg water

Q: And the Taste quality (sweet taste of glucose; pH 9.0)?
A: sweet

Q: What about the Threshold decrease (sweet taste of glucose; pH 9.0) of the same compound?
A: 16
